One data set has as its target T1, E. coli GroEL/ES (Escherichia coli, UniProt P0A6F5).
T1 construct: made in house; host or cells: GroEL in E. coli DH5α; GroES in E. coli BL21 (DE3)
As to the kind of experiment: GroEL/ES-mediated dRho refolding assay. It is filed as biochemical. As for the experimental part: Reagent preparation: For this assay, five primary reagent stocks were prepared: 1) GroEUES-dRho binary complex stock; 2) ATP initiation stock; 3) thiocyanate enzymatic assay stock; 4) formaldehyde quench stock; 5) ferric nitrate reporter stock. Denatured rhodanese (dRho) was prepared by 3-fold dilution of rhodanese (Roche product #R1756, diluted to 10 mg/mL with H2O) with denaturant buffer (12 M Urea, 50 mM Tris-HCl, pH 7.4, and 10 mM DTT). Rhodanese was completely denatured by incubating at room temperature for 45 min. The binary complex solution was prepared by slowly adding the dRho stock to a stirring stock of concentrated GroEL in modified folding buffer (50 mM Tris-HCl, pH 7.4, 50 mM KCl, 10 mM MgCl2, 5 mM Na2S2O3, and 1 mM DTT). The solution was centrifuged at 16,000×g for 5 minutes, and the supernatant was collected and added to a solution of GroES in modified folding buffer to give final protein concentrations of 100 nM GroEL, 120 nM GroES, and 80 nM dRho. The binary complex stock was prepared immediately prior to use. For the ATP initiation stock, ATP solid was diluted into modified folding buffer to a final concentration of 2.0 mM. The thiocyanate enzymatic assay stock was prepared to contain 70 mM KH2PO4, 80 mM KCN, and 80 mM Na2S2O3 in water. The formaldehyde quench solution contained 30% formaldehyde in water. The ferric nitrate reporter stock contained 8.5% w/v Fe(NO3)3 and 11.3% v/v HNO3 in water.
Assay Protocol: First, 10 μL aliquots of the GroEL/ES-dRho complex stock were dispensed into clear, 384-well polystyrene plates. […] The chaperonin-mediated refolding cycle was initiated by addition of 10 μL of ATP stock (reagent concentrations during refolding cycle: 50 nM GroEL, 60 nM GroES, 40 nM dRho, 1 mM ATP, and compounds of 250 μM to 114 nM, 3-fold dilution series). After incubating for 45 minutes at 37° C. for the refolding cycle, 30 μL of the thiocyanate enzymatic assay stock was added and incubated for 60 min at R.T. for the refolded rhodenase enzymatic reporter reaction. The reporter reaction was quenched by adding 10 μL of the formaldehyde quench stock, and then 40 μL of the ferric nitrate reporter stock was added to quantify the amount of thiocyanate produced during the enzymatic reporter reaction, which is proportional to the amount of dRho refolded by GroEL/ES. After incubating at R.T. for 15 min, the absorbance by Fe(SCN)3 was measured at 460 nm using a Molecular Devices SpectraMax Plus384 microplate reader. A second set of baseline control plates were prepared analogously, but without GroEL/ES-dRho protein binary solution, to correct for possible interference from compound absorbance or turbidity. […] Results presented represent the averages of IC50 values obtained from at least quadriplicate (duplicate of duplicate) replicates.
After generating the compound library, we next employed a series of well-established biochemical assays to evaluate compound inhibitory effects against the GroEUES chaperonin system (See FIG. 6 and FIG. 7). We used E. coli GroEUES as the surrogate chaperonin system for refolding of the reporter enzymes malate dehydrogenase (MDH) and rhodanese (Rho). Briefly, binary complexes are formed between GroEL and denatured MDH or Rho, which are then refolded to their native states upon addition of ATP and the GroES co-chaperonin. Enzymatic activities of refolded native MDH or Rho act as coupled reporters of GroEUES refolding functions since in the presence of chaperonin inhibitors, no functional reporter enzymes are generated.

Data set [1] has as its system S. aureus Rosenbach (ATCC 25923) biofilm formation. As to the kind of experiment: S. aureus biofilm prevention assay (crystal violet). It is filed as cell-based. To be noted: Staphylococcus aureus, read-out: S. aureus Proliferation & Biofilm Assay EC50 Preventing Biofilm Formation. On the procedure: The biofilm prevention assay was carried out with S. aureus Rosenbach (ATCC 25923) using a quantitative crystal violet-based adherence assay on 96-well plates. S. aureus (ATCC 25923) bacteria were streaked onto a Tryptic Soy Broth (TSB) agar plate and grown overnight at 37° C. A fresh aliquot of TSB media was inoculated with a single bacterial colony and the cultures were grown overnight at 37° C. with shaking (250 rpm). The overnight culture was then sub-cultured (1:5 dilution) into a fresh aliquot of TSB media supplemented to a final concentration of 0.5% glucose and grown at 37° C. for 1 h with shaking, then diluted into fresh TSB media supplemented with 0.5% glucose to achieve a final OD600 reading of 0.01. Aliquots of the diluted culture (100 μL) were dispensed to 96 well polystyrene plates along with addition of 1 μL test compounds in DMSO. The inhibitor concentration range during the assay was 100 μM to 46 nM (3-fold dilution series). A second set of baseline control plates were prepared analogously, but without any bacteria added, to correct for possible compound absorbance and/or precipitation. Plates were sealed with “Breathe Easy” oxygen permeable membranes (Diversified Biotech) and left to incubate at 37° C. without shaking (stagnant assay) until the biofilm was formed. After 24 h, the planktonic cultures were removed and the plates were washed gently 2-3 times with 200 μl of water. Next, the plates were air dried and the adherent biofilms were stained with 150 μL of crystal violet solution (2.3% crystal violet in 20% Ethanol, Sigma Aldrich #HT90132) for 15 minutes at R.T. The unbound crystal violet stain was removed, then plates were gently washed again with running water and air dried for 10 min. Quantitative assessment of biofilm formation was obtained by adding 100 μL of developer solution (4:1:5 mixture of MeOH:AcOH:H2O) per well. Well absorbance was then read at 595 nm using a Molecular Devices SpectraMax Plus384 microplate reader. […] Results presented represent the averages of EC50 values obtained from at least triplicate experiments.
Establishing biofilms is another effective mechanism by which S. aureus can evade the effects of many current antibiotics, including vancomycin. […] Briefly, test compounds (1, 2, 5, 8, 11, and vancomycin) were incubated with S. aureus bacteria in media supplemented with 0.5% glucose (to support biofilm formation) for 24 h at 37° C. After 24 h, the supernatant was removed, the wells were gently washed, and the biofilm that had formed on the well surfaces were stained with crystal-violet and quantified by UV-Vis spectroscopy.

Data set [2] can be described thus: Liver cell viability assay (Alamar Blue). To be noted: human. As for the experimental part:
HEK 293 cells were maintained in MEM medium (Corning Cellgro, 10-009 CV) supplemented with 10% FBS (Sigma, F2242). […] Cells at 80% confluence were harvested and diluted in growth medium, then 45 μL of the THLE-3 cells (1,500 cells/well) or HEK 293 cells (1,500 cells/well) were dispensed per well, and plates were sealed with “Breathe Easy” oxygen permeable membranes (Diversified Biotech) and incubated at 37° C., 5% CO2, for 24 h.
In general terms: Alamar Blue is a resazurin reagent that responds to reducing activity.

The mark [3] stands for this setting: log of IC50 (μM scale), with standard deviation.
Setting [4] is: read-out: Biochemical Assay IC50 GroEL/ES-dRho Refolding.
Where [5] appears, read: log of IC50 (μM scale), with standard deviation, read-out: log(IC50) GroEL/ES-dRho Refolding (converted).

Read-outs that look alike come from different tables or passages of the source. Where only a bound is given, the exact number is not on record here.

T1 sequence (P0A6F5 2-548): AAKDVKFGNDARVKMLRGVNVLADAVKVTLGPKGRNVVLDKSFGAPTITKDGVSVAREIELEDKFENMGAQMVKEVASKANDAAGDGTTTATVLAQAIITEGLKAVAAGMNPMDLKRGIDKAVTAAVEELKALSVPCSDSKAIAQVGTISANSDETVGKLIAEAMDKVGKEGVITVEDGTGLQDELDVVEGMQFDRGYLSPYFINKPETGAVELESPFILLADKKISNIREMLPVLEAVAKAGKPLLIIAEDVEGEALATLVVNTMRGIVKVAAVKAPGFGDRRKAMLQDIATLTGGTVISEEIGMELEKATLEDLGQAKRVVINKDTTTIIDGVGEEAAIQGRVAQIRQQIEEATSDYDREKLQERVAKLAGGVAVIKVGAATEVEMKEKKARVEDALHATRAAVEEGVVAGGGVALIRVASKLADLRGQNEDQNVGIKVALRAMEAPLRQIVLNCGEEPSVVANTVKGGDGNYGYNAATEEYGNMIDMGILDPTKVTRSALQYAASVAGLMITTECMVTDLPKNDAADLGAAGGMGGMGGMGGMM

In the case of `O=C(Nc1ccc(Sc2nc3ccccc3s2)cc1)c1ccccc1O` [Compound 8, N-(4-(Benzo[d]thiazol-2-ylthio)phenyl)-2-hydroxybenzamide], the “log(IC50) GroEL/ES-dRho Refolding” value at E. coli GroEL/ES (setting [3]) turned out to be 1.94 ± 0.23. In addition, on E. coli GroEL/ES (setting [4]), the IC50 is 87 µM. For the same compound, the EC50 in data set [1] (ATCC25923, 24 h, media with 0.5% glucose, crystal violet A595) came out at 0.91 µM.

`O=C(Nc1cccc(Cl)c1)c1cc(Br)ccc1O` [Compound 11, 5-Bromo-N-(3-chlorophenyl)-2-hydroxybenzamide] showed an IC50 against E. coli GroEL/ES greater than 100 µM. Besides, the “log(IC50) GroEL/ES-dRho Refolding” value at E. coli GroEL/ES (setting [3]) was greater than 2. Also, in data set [1] (ATCC25923, 24 h), the EC50 amounted to 0.44 µM.

Consider `O=C(Nc1ccc(Sc2nc3ccccc3s2)c(Cl)c1)c1cc(Br)cc(Br)c1O` [Compound 1, N-(4-(Benzo[d]thiazol-2-ylthio)-3-chlorophenyl)-3,5-dibromo-2-hydroxybenzamide], for which the IC50 on E. coli GroEL/ES (setting [5]) is 1.55 µM; on E. coli GroEL/ES (setting [4]) it was 1.5 µM. Further, the EC50 in data set [1] (ATCC25923, 24 h) turned out to be 0.72 µM.

Take `O=C(Nc1ccc(Sc2nc3ccccc3s2)cc1)c1cc(Br)cc(Br)c1O` [Compound 5, N-(4-(Benzo[d]thiazol-2-ylthio)phenyl)-3,5-dibromo-2-hydroxybenzamide]: the IC50 is 1.32 µM at E. coli GroEL/ES (setting [5]) and 1.3 µM on E. coli GroEL/ES (setting [4]). For the same compound, the EC50 in data set [1] (ATCC25923, 24 h) was 0.54 µM.

For `CC1(C)S[C@@H]2[C@H](NC(=O)[C@H](N)c3ccccc3)C(=O)N2[C@H]1C(=O)O` [Ampicillin, ampicillin, reference compound], the “log(IC50) GroEL/ES-dRho Refolding” value at E. coli GroEL/ES (setting [3]) was greater than 2. For the same compound, on E. coli GroEL/ES (setting [4]), the IC50 was greater than 100 µM. The CC50 at 48 h in data set [2] (THLE-3 liver cells) is greater than 100 µM.

In turn, `COc1c(Br)cc(Br)cc1C(=O)Nc1ccc(Sc2nc3ccccc3s2)cc1` [Compound 33, N-(4-(Benzo[d]thiazol-2-ylthio)phenyl)-3,5-dibromo-2-methoxybenzamide] yielded an IC50 against E. coli GroEL/ES greater than 100 µM. The CC50 at 48 h in data set [2] was greater than 100 µM.

On to `O=C(Nc1ccccc1)c1cc(Br)cc(Br)c1O` [Compound 13, 3,5-Dibromo-2-hydroxy-N-phenylbenzamide], for which the IC50 on E. coli GroEL/ES was greater than 100 µM. Moreover, the “log(IC50) GroEL/ES-dRho Refolding” value on E. coli GroEL/ES (setting [3]) is given as greater than 2. The CC50 at 48 h in data set [2] (THLE-3 liver cells) is 25.1 µM.

For the compound `COc1ccc(Br)cc1C(=O)Nc1ccc(Sc2nc3ccccc3s2)c(Cl)c1` [Compound 31, N-(4-(Benzo[d]thiazol-2-ylthio)-3-chlorophenyl)-5-bromo-2-methoxybenzamide], the IC50 at E. coli GroEL/ES is greater than 100 µM. In data set [2], this compound came in with a CC50 at 48 h greater than 100 µM.

As for `O=C(Nc1ccc(Sc2nc3ccccc3s2)c(Cl)c1)c1cccc(Br)c1O` [Compound 2, N-(4-(Benzo[d]thiazol-2-ylthio)-3-chlorophenyl)-3-bromo-2-hydroxybenzamide], at E. coli GroEL/ES (setting [3]), the “log(IC50) GroEL/ES-dRho Refolding” value is reported as 0.58 ± 0.15. Also, the IC50 on E. coli GroEL/ES (setting [4]) was 3.8 µM. In addition, the EC50 in data set [1] (ATCC25923, 24 h) stood at 1 µM.

As to `COc1c(Br)cccc1C(=O)Nc1ccc(Sc2nc3ccccc3s2)c(Cl)c1` [Compound 30, N-(4-(Benzo[d]thiazol-2-ylthio)-3-chlorophenyl)-3-bromo-2-methoxybenzamide], on E. coli GroEL/ES, the IC50 was greater than 100 µM. The compound also had a CC50 at 48 h in data set [2] greater than 100 µM.

`COc1ccc(Br)cc1C(=O)Nc1ccc(Sc2nc3ccccc3s2)cc1` [Compound 35, N-(4-(Benzo[d]thiazol-2-ylthio)phenyl)-5-bromo-2-methoxybenzamide]: at E. coli GroEL/ES, the IC50 was greater than 100 µM. The same compound yielded a CC50 at 48 h in data set [2] greater than 100 µM.

`COc1ccccc1C(=O)Nc1ccc(Sc2nc3ccccc3s2)c(Cl)c1` [Compound 32, N-(4-(Benzo[d]thiazol-2-ylthio)-3-chlorophenyl)-2-methoxybenzamide] had an IC50 against E. coli GroEL/ES greater than 100 µM. In data set [2], the CC50 at 48 h was greater than 100 µM.

Turning to `O=C(Nc1cccc(Cl)c1)c1cccc(Br)c1` [Compound 24, 3-Bromo-N-(3-chlorophenyl)benzamide], the IC50 against E. coli GroEL/ES is greater than 100 µM. For the same compound, the “log(IC50) GroEL/ES-dRho Refolding” value at E. coli GroEL/ES (setting [3]) is given as greater than 2. The CC50 at 48 h in data set [2] was 50.1 µM.

Take `O=C(Nc1ccc(Sc2nc3ccccc3s2)c(Cl)c1)c1cccc(Br)c1` [Compound 18, N-(4-(Benzo[d]thiazol-2-ylthio)-3-chlorophenyl)-3-bromobenzamide]: the IC50 against E. coli GroEL/ES was greater than 100 µM. The CC50 at 48 h in data set [2] was 87.1 µM.

`COc1c(Br)cc(Br)cc1C(=O)Nc1ccccc1` [Compound 41, 3,5-Dibromo-2-methoxy-N-phenylbenzamide] registered an IC50 at E. coli GroEL/ES greater than 100 µM. The “log(IC50) GroEL/ES-dRho Refolding” value at E. coli GroEL/ES (setting [3]) is on record as greater than 2. In addition, the CC50 at 48 h in data set [2] was greater than 100 µM.

On to `O=C(Nc1ccc(Sc2nc3ccccc3s2)c(Cl)c1)c1cc(Br)cc(Br)c1` [Compound 17, N-(4-(Benzo[d]thiazol-2-ylthio)-3-chlorophenyl)-3,5-dibromobenzamide], for which the IC50 at E. coli GroEL/ES was greater than 100 µM. The CC50 at 48 h in data set [2] was greater than 100 µM.

As for `COc1ccccc1C(=O)Nc1ccccc1` [Compound 44, 2-Methoxy-N-phenylbenzamide], the IC50 at E. coli GroEL/ES is greater than 100 µM. The “log(IC50) GroEL/ES-dRho Refolding” value at E. coli GroEL/ES (setting [3]) is greater than 2. The CC50 at 48 h in data set [2] was greater than 100 µM.

On to `O=C(Nc1cccc(Cl)c1)c1ccccc1` [Compound 25, N-(3-Chlorophenyl)benzamide], for which, at E. coli GroEL/ES, the IC50 is greater than 100 µM. In addition, the “log(IC50) GroEL/ES-dRho Refolding” value on E. coli GroEL/ES (setting [3]) is reported as greater than 2. The compound further came in with a CC50 at 48 h in data set [2] greater than 100 µM.

The values above are taken from patent US20210395210A1, “INHIBITION OF BACTERIAL CHAPERONIN SYSTEMS” (THE TRUSTEES OF INDIANA UNIVERSITY, priority 2018, published 2021).
